# Data reported in patent publication US9156822B2, “Functionally selective ligands of dopamine D2 receptors” (The University of North Carolina at Chapel Hill, priority 2010, dated 2015).
# “Also recorded” adds a separate entry of the source. Where two headings read alike, the source gives them in different places.
# Experiments:
# 5HT2B [1] = target: T1, 5HT2B (Homo sapiens (Human), UniProt P41595); assay: biochemical
# 5HT2A [2] = target: T2, 5HT2A (Homo sapiens (Human), UniProt P28223); assay: 5HT2A FLIPR (Ca2+ mobilization); assay type: cell-based
# 5HT1A [3] = target: T3, 5HT1A (Homo sapiens (Human), UniProt P08908); assay: 5HT1A binding
# 5HT2B [4] = target: T1, 5HT2B
# 5HT2C [5] = target: T4, 5HT2C (Homo sapiens (Human), UniProt P28335); conditions: read-out: 5HT2C/binding (Ki)
# T4 sequence (P28335 33-458, species assumed): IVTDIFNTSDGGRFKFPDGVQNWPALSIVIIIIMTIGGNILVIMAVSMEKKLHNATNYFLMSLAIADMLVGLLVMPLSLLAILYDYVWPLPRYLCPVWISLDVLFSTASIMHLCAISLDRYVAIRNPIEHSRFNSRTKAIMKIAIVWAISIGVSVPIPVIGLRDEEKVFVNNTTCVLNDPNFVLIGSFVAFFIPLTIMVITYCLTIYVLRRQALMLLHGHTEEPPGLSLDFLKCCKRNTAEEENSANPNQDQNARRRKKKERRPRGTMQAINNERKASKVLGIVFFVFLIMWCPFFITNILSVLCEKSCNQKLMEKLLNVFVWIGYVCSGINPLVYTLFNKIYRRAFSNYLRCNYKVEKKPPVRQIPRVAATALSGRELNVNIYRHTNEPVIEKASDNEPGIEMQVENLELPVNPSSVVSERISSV
# 5HT2C [6] = target: T4, 5HT2C; assay: 5HT2C FLIPR (Ca2+ mobilization); assay type: cell-based
# 5HT2C [7] = target: T4, 5HT2C; assay: biochemical
# [8] = system: wild-type and β-arrestin-2 knockout mice; conditions: i.p., 5.0 mg/kg (haloperidol 2.0 mg/kg), 30 and 60 min
# H1-histamine receptor = H1-histamine receptor (Homo sapiens (Human), UniProt P35367); assay: H1 binding
# Chain of H1-histamine receptor (P35367 whole entry): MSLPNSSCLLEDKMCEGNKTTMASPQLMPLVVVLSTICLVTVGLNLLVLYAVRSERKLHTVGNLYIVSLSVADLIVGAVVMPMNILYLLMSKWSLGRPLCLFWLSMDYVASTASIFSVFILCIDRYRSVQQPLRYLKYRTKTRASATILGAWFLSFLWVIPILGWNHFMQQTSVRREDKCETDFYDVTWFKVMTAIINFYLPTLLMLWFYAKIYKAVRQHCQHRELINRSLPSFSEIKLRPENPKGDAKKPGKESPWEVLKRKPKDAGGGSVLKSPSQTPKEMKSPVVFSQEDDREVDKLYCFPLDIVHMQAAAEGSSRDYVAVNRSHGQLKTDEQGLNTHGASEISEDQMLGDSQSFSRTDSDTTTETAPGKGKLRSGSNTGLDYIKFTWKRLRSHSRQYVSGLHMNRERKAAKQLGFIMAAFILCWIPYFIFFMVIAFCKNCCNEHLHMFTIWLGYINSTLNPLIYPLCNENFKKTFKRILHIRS
# 5HT2B [9] = target: T1, 5HT2B; conditions: read-out: 5HT2B/binding (Ki)
# 5HT2B [10] = target: T1, 5HT2B; assay: cell-based
# 5HT1A [11] = target: T3, 5HT1A; assay: 5HT1A cAMP biosensor; assay type: cell-based
# D4 dopamine receptor = D4 dopamine receptor (Homo sapiens (Human), UniProt P21917); conditions: read-out: D4/binding (Ki)
# Chain of D4 dopamine receptor (P21917 whole entry): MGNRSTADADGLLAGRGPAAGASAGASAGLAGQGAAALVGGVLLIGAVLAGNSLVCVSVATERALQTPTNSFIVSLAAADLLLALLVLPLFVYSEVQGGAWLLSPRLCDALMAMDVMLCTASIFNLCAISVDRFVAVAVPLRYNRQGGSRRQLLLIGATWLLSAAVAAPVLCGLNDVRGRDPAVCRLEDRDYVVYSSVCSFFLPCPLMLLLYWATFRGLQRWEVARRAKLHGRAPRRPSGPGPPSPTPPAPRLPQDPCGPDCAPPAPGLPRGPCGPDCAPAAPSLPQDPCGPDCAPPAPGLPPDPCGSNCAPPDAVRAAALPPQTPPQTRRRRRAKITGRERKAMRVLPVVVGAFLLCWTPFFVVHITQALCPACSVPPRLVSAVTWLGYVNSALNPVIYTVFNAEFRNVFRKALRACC
# D5 dopamine receptor = D5 dopamine receptor (Homo sapiens (Human), UniProt P21918); conditions: read-out: D5/binding (Ki)
# Chain of D5 dopamine receptor (P21918 whole entry): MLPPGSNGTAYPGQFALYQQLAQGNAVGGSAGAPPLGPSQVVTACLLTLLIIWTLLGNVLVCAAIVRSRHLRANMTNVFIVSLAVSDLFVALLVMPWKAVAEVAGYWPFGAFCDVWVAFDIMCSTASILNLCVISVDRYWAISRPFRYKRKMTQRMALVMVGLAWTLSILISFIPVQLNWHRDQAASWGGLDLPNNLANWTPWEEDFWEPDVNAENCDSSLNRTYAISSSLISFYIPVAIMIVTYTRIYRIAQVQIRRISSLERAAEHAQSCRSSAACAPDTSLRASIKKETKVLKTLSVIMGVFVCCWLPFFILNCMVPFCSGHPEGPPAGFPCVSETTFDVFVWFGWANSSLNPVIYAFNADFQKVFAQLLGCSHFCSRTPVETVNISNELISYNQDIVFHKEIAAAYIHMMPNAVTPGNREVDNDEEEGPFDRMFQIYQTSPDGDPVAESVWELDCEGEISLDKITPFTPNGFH
# D2 receptors [12] = target: T5, D2 receptors (Homo sapiens (Human), UniProt P14416); assay: D2 β-arrestin recruitment (Tango) assay; assay type: cell-based
# Method: The next day, cells were plated in white, clear-bottom, 384-well plates (Greiner, 10,000 cells/well, 50 μl/well) in DMEM containing 1% dialyzed fetal bovine serum. […] Data were normalized to vehicle (0%) and quinpirole (100%) controls and regressed using the sigmoidal dose-response function built into GraphPad Prism 4.0.
# Target sequence in this assay (P14416 whole entry, looked up): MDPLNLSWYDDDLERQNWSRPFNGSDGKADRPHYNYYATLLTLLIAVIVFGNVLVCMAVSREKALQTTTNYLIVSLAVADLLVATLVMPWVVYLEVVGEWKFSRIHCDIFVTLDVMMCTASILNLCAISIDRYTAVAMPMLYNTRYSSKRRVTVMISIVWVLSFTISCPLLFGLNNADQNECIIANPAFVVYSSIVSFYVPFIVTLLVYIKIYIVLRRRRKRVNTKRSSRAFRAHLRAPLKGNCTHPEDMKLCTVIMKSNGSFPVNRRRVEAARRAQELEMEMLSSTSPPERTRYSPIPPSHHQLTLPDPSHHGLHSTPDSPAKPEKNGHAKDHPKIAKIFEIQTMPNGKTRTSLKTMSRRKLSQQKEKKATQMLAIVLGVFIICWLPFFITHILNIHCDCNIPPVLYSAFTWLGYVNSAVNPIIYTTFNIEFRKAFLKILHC
# [13] = mouse
# D2 receptors [14] = target: T5, D2 receptors; assay: CHO-D2 radioligand binding assay ([3H]N-methylspiperone competition)
# Target sequence in this assay (P14416 whole entry): as the sequence (P14416 whole entry, looked up) above
# D3-dopamine receptor = D3-dopamine receptor (Homo sapiens (Human), UniProt P35462); conditions: read-out: D3/binding (Ki)
# Chain of D3-dopamine receptor (P35462 whole entry): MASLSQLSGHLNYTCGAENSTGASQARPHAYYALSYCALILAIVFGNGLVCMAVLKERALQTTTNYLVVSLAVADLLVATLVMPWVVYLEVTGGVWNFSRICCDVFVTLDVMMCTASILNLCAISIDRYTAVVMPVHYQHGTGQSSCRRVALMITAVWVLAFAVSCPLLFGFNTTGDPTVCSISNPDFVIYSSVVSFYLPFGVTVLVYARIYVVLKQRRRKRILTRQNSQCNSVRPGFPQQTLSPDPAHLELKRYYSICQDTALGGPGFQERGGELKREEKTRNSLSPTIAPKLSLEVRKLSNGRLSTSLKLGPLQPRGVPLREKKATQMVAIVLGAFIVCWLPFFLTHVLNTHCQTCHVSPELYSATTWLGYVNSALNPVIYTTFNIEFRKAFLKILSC
# hD2 receptors = hD2 receptors (Homo sapiens (Human), UniProt P14416); assay: D2 mediated cAMP GloSensor assay; assay type: cell-based; conditions: for Emax: read-out: cAMP (GloSensor) Emax; on cAMP (GloSensor) activity in words (merged EC50/Emax cell): key: neutral: Neutral ligands are either antagonists or are inactive
# Chain of hD2 receptors (P14416 whole entry): as the sequence (P14416 whole entry, looked up) above
# 5HT2A [15] = target: T2, 5HT2A; conditions: read-out: 5HT2A/binding (Ki)
# in vivo = conditions: mouse
# C57BL/6 mice = conditions: i.p., 3 mg/kg D-amphetamine
# [16] = system: wild-type and β-arrestin-2 knockout mice; conditions: i.p., 6 mg/kg PCP
# hD2L dopamine receptor = hD2L dopamine receptor (Homo sapiens (Human), UniProt P14416); assay: pERK high-content assay; assay type: cell-based; conditions: for Emax: normalized to dopamine, read-out: p-ERK Emax
# Chain of hD2L dopamine receptor (P14416 whole entry): as the sequence (P14416 whole entry, looked up) above
# Method: On day 1 of the assay, cells were seeded onto black clear-bottom tissue culture-treated 96-well plates (Greiner, BioOne). On day 2 of the assay, cells were washed with serum-free medium (Ham's F-12, penicillin and streptomycin) and incubated in 100 μL serum-free medium overnight.
# Immunofluorescence: Automatic multichannel pipetters were used for liquid handling and multichannel vacuum manifolds for aspirations. Each tested concentration was typically measured in triplicate or quadruplicate. For concentration curves, half-log-dilutions were used. Drug dilutions were prepared in stimulation medium (serum-free medium, 100 mg/L ascorbic acid). 100 μM dopamine and 1 μM PMA (phorbol 12-myristate 13-acetate) were used as positive controls. Medium only was used as a negative control. Specificity of the response was confirmed by pretreatment for 5 min with 10 μM of the antagonist spiperone and in experiments using wild type CHO cells.
# Cells were stimulated on day 3 by fast addition of 50 μL equilibrated 3× drug dilutions in a tissue culture incubator for 5 min. Plates were placed on ice, the medium was aspirated, and 100 μL/well of freshly prepared ice-cold fixing buffer (4% formaldehyde and 0.5 mM CaCl2 in PBS) solution was added. After 30 min fixing at room temperature, the plates were washed with 350 μL/well PBS/Ca (0.5 mM CaCl2 in PBS) and permeabilized for 20 min in 100 μL/well 0.3% Triton X-100 in PBS/Ca. […] Plates were washed three times with 250 μL/well washing buffer, post-fixed for 10 min in fixing buffer, washed with 250 μl PBS/Ca, filled with 200 μL/well PBS/Ca, sealed with transparent adhesive plate seals, and stored at 4° C.
# The Alexa594 light path was used for the target signal, Alexa488 for whole cell staining, and Hoechst for the nuclear staining. Images were analyzed using the CellProfiler software. […] Concentration curves were analyzed in GraphPad Prism by fitting against a sigmoidal dose-response model and normalization to the dopamine curve.
# D1 dopamine receptor = D1 dopamine receptor (Homo sapiens (Human), UniProt P21728); conditions: read-out: D1/binding (Ki)
# Chain of D1 dopamine receptor (P21728 whole entry): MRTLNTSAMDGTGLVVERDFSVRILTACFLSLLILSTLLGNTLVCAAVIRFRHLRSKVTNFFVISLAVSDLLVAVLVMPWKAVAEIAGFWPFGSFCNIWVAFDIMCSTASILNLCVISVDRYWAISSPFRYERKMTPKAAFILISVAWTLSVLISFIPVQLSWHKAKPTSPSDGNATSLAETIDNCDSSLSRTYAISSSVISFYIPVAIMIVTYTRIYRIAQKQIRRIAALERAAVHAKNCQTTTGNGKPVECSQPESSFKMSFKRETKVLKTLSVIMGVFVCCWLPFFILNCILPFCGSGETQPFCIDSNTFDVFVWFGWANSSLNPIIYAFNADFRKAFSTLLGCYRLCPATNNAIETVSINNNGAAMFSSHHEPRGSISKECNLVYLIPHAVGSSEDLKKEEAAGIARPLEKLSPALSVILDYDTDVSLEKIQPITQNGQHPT
# 5HT2A [17] = target: T2, 5HT2A; assay: biochemical
# [18] = HTLA cells, read-out: β-arrestin (Tango) EC50
# [19] = normalized to quinpirole (100%)
# [20] = CHO-D2 membranes, [3H]N-methylspiperone, read-out: D2 Binding Ki ± SEM
# [21] = HEK293T, isoproterenol-stimulated cAMP
# [22] = normalized to quinpirole, negative = inverse agonist
# T1 sequence (P41595 whole entry, species assumed): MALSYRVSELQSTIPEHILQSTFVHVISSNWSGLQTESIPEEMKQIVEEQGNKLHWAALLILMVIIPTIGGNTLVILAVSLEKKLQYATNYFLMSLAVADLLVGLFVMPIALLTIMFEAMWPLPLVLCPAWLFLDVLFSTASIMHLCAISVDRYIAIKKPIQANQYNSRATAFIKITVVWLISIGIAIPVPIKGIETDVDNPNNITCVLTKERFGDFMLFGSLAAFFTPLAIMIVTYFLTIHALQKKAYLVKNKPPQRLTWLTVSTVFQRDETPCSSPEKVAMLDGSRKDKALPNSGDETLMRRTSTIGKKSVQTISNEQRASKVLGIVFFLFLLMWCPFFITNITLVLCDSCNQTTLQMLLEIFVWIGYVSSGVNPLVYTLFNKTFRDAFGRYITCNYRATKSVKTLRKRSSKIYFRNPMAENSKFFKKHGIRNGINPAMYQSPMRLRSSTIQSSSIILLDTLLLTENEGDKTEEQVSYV
smiles,measurement,setting,value
"O=C1CCc2ccc(OCCCCN3CCCN(c4cccc(Cl)c4Cl)CC3)cc2N1 [Compound 2, 7-(4-(4-(2,3-dichlorophenyl)-1,4-diazepan-1-yl)butoxy)-3,4-dihydroquinolin-2(1H)-one]",Ki,5HT2B [1],0.6 to 250 nM
same,functional mode at 5HT2A,5HT2A [2],antagonists
same,Ki,5HT1A [3],0.6 to 250 nM
same,Ki,5HT1A [3]; read-out: 5HT1A/binding (Ki),60 nM
same,functional mode at 5HT2B,5HT2B [4],antagonists
same,Ki,5HT2C [5],115 nM
same,IC50,5HT2C [6],3600 nM
same,functional mode at 5HT2C,5HT2C [6],antagonists
same,Ki,5HT2C [7],0.6 to 250 nM
same,"catalepsy (latency to move, inclined screen test)","[8]; wild-type mice, listed as UNC0006",do not induce catalepsy
same,"catalepsy (latency to move, inclined screen test)","[8]; β-arrestin-2 knockout mice, listed as UNC0006",induced catalepsy; also recorded: inducing catalepsy
same,Ki,H1-histamine receptor,4.5 nM
same,Ki,5HT2B [9],0.6 nM
same,IC50,5HT2B [10],115 nM
same,EC50,5HT1A [11],> 1000 nM
same,EC50,5HT1A [11]; read-out: 5HT1A/cAMP (EC50),2500 nM
"O=C1CCc2ccc(OCCCCN3CCCN(c4cccc(Cl)c4Cl)CC3)nc2N1 [Compound 3, 7-(4-(4-(2,3-dichlorophenyl)-1,4-diazepan-1-yl)butoxy)-3,4-dihydro-1,8-naphthyridin-2(1H)-one]",Ki,D4 dopamine receptor,178 nM
same,Ki,5HT2B [1],0.6 to 250 nM
same,Ki,D5 dopamine receptor,513 nM
same,β-arrestin (Tango) % activ at 1 μM,D2 receptors [12],11%
same,EC50,D2 receptors [12]; [18],3.3 nM
same,Emax,D2 receptors [12]; [19],44%
same,"brain exposure level, fold lower compared to aripiprazole",[13],about 3 fold
same,Brain/Plasma Ratio,[13]; 0.08 h,0.57 mL/g
same,Brain/Plasma Ratio,[13]; 0.5 h,1.12 mL/g
same,Brain/Plasma Ratio,[13]; 1 h,1.29 mL/g
same,Brain/Plasma Ratio,[13]; 2 h,3.67 mL/g
same,Brain/Plasma Ratio,[13]; 4 h,12.26 mL/g
same,Brain/Plasma Ratio,[13]; […],0.80 mL/g
same,Ki,"D2 receptors [14]; Table 7, read-out: D2/binding (Ki)",< 10 nM
same,Ki,D2 receptors [14]; read-out: D2/binding (Ki),2.6 nM
same,Ki,D2 receptors [14]; read-out: D2 Binding Ki ± SEM,1.2 ± 0.1 nM
same,IC50,5HT2A [2],660 nM
same,functional mode at 5HT2A,5HT2A [2],antagonists
same,Ki,D3-dopamine receptor,11 nM
same,EC50,hD2 receptors,13 nM
same,Emax,hD2 receptors,-94%
same,Ki,5HT1A [3]; read-out: 5HT1A/binding (Ki),29 nM
same,functional mode at 5HT2B,5HT2B [4],antagonists
same,Ki,5HT2C [5],99 nM
same,functional mode at 5HT2C,5HT2C [6],antagonists
same,IC50,5HT2C [6]; read-out: 5HT2C/FLIPR (IC50),2200 nM
same,Ki,5HT2A [15],7.4 nM
same,AUC(0-inf),in vivo; brain,329 ng·h/mL
same,AUC(0-t),in vivo; brain,267 ng·h/mL
same,Cmax,in vivo; brain,49.8 ng/mL
same,Tmax,in vivo; brain,15 min
same,concentration at 0.08 h,in vivo; brain,37.8 ng/g
same,concentration at 0.5 h,in vivo; brain,27.2 ng/g
same,concentration at 1 h,in vivo; brain,31.2 ng/g
same,concentration at 2 h,in vivo; brain,23 ng/g
same,concentration at 4 h,in vivo; brain,16.9 ng/g
same,concentration at 8 h,in vivo; brain,9.9 ng/g
same,concentration at 24 h,in vivo; brain,4.2 ng/g
same,half-life,in vivo; brain,636 min
same,AUC(0-inf),in vivo; plasma,61.5 ng·h/mL
same,AUC(0-t),in vivo; plasma,59.9 ng·h/mL
same,Cmax,in vivo; plasma,70.6 ng/mL
same,Tmax,in vivo; plasma,4.8 min
same,concentration at 0.08 h,in vivo; plasma,70.6 ng/mL
same,concentration at 0.5 h,in vivo; plasma,23.7 ng/mL
same,concentration at 1 h,in vivo; plasma,24.6 ng/mL
same,concentration at 2 h,in vivo; plasma,6.3 ng/mL
same,concentration at 4 h,in vivo; plasma,1.4 ng/mL
same,concentration at 8 h,in vivo; plasma,0 ng/mL
same,concentration at 24 h,in vivo; plasma,0 ng/mL
same,half-life,in vivo; plasma,48.6 min
same,antipsychotic-like activity in D-amphetamine-induced hyperlocomotion,C57BL/6 mice,potent antipsychotic-like activity
same,Ki,5HT2C [7],0.6 to 250 nM
same,antipsychotic-like activity in PCP-induced hyperlocomotion,[16]; wild-type mice,potent antipsychotic-like activity
same,antipsychotic-like activity in PCP-induced hyperlocomotion,[16]; β-arrestin-2 knockout mice,attenuated
same,Emax,hD2L dopamine receptor,< 5%
same,"catalepsy (latency to move, inclined screen test)","[8]; wild-type mice, listed as UNC9975",do not induce catalepsy
same,"catalepsy (latency to move, inclined screen test)","[8]; β-arrestin-2 knockout mice, listed as UNC9975",induced catalepsy; also recorded: inducing catalepsy
same,Ki,H1-histamine receptor,6.1 nM
same,Ki,D1 dopamine receptor,1040 nM
same,Ki,5HT2B [9],1.1 nM
same,IC50,5HT2B [10],76 nM
same,Ki,5HT2A [17],0.6 to 250 nM
same,EC50,5HT1A [11]; read-out: 5HT1A/cAMP (EC50),1800 nM
same,EC50,"5HT1A [11]; text bound, read-out: 5HT1A EC50 (weak agonists)",> 1000 nM
"Clc1cccc(N2CCN(CCCOc3ccc4cn[nH]c4c3)CC2)c1Cl [Compound 20, 6-(3-(4-(2,3-dichlorophenyl)piperazin-1-yl)propoxy)-1H-indazole]",β-arrestin (Tango) % activ at 1 μM,D2 receptors [12],45%
same,EC50,D2 receptors [12]; [18],59 nM
same,Emax,D2 receptors [12]; [19],90%
same,Ki,D2 receptors [14]; [20],104 ± 13 nM
same,melting point,,159 to 161 °C
same,EC50,hD2 receptors; [21],9.7 nM
same,Emax,hD2 receptors; [22],-22%
"Clc1cccc(C2CCN(CCCCOc3ccc4scnc4c3)CC2)c1Cl [Compound 21, 5-(4-(4-(2,3-dichlorophenyl)piperidin-1-yl)butoxy)benzo[d]thiazole]",β-arrestin (Tango) % activ at 1 μM,D2 receptors [12],26%
same,EC50,D2 receptors [12]; [18],82 nM
same,Emax,D2 receptors [12]; [19],81%
same,Ki,D2 receptors [14]; read-out: D2 Binding Ki ± SEM,42 ± 4 nM
same,melting point,,79 to 81 °C
same,EC50,hD2 receptors,21 nM
same,Emax,hD2 receptors,-27%
"Clc1cccc(C2CCN(CCCOc3ccc4scnc4c3)CC2)c1Cl [Compound 22, 5-(3-(4-(2,3-dichlorophenyl)piperidin-1-yl)propoxy)benzo[d]thiazole]",EC50,D2 receptors [12],51 nM
same,β-arrestin (Tango) % activ at 1 μM,D2 receptors [12],59%
same,β-arrestin (Tango) Emax,D2 receptors [12]; [19],100%
same,Ki,D2 receptors [14]; [20],75 ± 12 nM
same,cAMP (GloSensor) activity in words (merged EC50/Emax cell),hD2 receptors,neutral
same,EC50,"hD2L dopamine receptor; CHO-hD2L cells, read-out: p-ERK EC50",58 nM
same,Emax,hD2L dopamine receptor,50%
"Clc1cccc(N2CCN(CCCOc3ccc4scnc4c3)CC2)c1Cl [Compound 23, 5-(3-(4-(2,3-dichlorophenyl)piperazin-1-yl)propoxy)benzo[d]thiazole]",β-arrestin (Tango) % activ at 1 μM,D2 receptors [12],48%
same,EC50,D2 receptors [12]; [18],107 nM
same,Emax,D2 receptors [12]; [19],91%
same,Ki,D2 receptors [14]; [20],30 ± 5 nM
same,melting point,,127 to 129 °C
same,EC50,hD2 receptors; [21],9.8 nM
same,Emax,hD2 receptors; [22],-16%
"O=C1CCc2ccc(Oc3cccc(CN4CCN(c5cccc(Cl)c5Cl)CC4)c3)cc2N1 [Compound 30, 7-(3-((4-(2,3-dichlorophenyl)piperazin-1-yl)methyl)phenoxy)-3,4-dihydro quinolin-2(1H)-one]",EC50,D2 receptors [12],297 nM
same,β-arrestin (Tango) % activ at 1 μM,D2 receptors [12],9%
same,Emax,D2 receptors [12]; [19],58%
same,Ki,D2 receptors [14]; [20],113 ± 18 nM
same,melting point,,182 to 183 °C
same,cAMP (GloSensor) activity in words (merged EC50/Emax cell),hD2 receptors,neutral
"O=C1NCCc2ccc(OCCCCN3CCC(c4cccc(Cl)c4Cl)CC3)cc21 [Compound 33, 7-(4-(4-(2,3-dichlorophenyl)piperidin-1-yl)butoxy)-3,4-dihydroisoquinolin-1(2H)-one]",EC50,D2 receptors [12],24 nM
same,β-arrestin (Tango) % activ at 1 μM,D2 receptors [12],26%
same,Emax,D2 receptors [12]; [19],64%
same,Ki,D2 receptors [14]; [20],20 ± 3 nM
same,melting point,,113 to 114 °C
same,cAMP (GloSensor) activity in words (merged EC50/Emax cell),hD2 receptors,neutral
"Clc1cccc(N2CCN(CCCCOc3ccc4scnc4c3)CC2)c1Cl [Compound 36, 5-(4-(4-(2,3-dichlorophenyl)piperazin-1-yl)butoxy)benzo[d]thiazole]",EC50,D2 receptors [12],59 nM
same,β-arrestin (Tango) % activ at 1 μM,D2 receptors [12],13%
same,Emax,D2 receptors [12]; [19],64%
same,Ki,D2 receptors [14]; [20],17 ± 3 nM
same,melting point,,93 to 94.5 °C
same,cAMP (GloSensor) activity in words (merged EC50/Emax cell),hD2 receptors,neutral
"O=C(CCCN1CCC(O)(c2ccc(Cl)cc2)CC1)c1ccc(F)cc1 [haloperidol, reference compound]","catalepsy (latency to move, inclined screen test)",[8]; β-arrestin-2 knockout mice,inducing catalepsy
